Laboratory results from US9295259B2, “Fungicidal substituted 1-{2-[2-halo-4-(4-halogen-phenoxy)-phenyl]-2-alkoxy-3-methyl-butyl}-1H [1,2,4]triazole compounds” (BASF SE, priority 2011, dated 2016).

Assays:
[1] = system: Septoria tritici; experiment: Activity against leaf blotch on wheat caused by Septoria tritici (Septtr), microtest; assay type: cell-based; details: relative growth vs compound-free control (100%), 405 nm, 7 days after inoculation
[2] = system: Phakopsora pachyrhizi; experiment: Protective control of soy bean rust on soy beans (Phakpa P2), green house; assay type: in vivo, Phakopsora pachyrhizi on soy bean; details: 16 ppm spray, inoculated 2 days after treatment, % diseased leaf area, untreated control 80

SMILES | Growth (%) at 0.000125 ppm Septtr [1] [%] | Disease (%) at 16 ppm Phakpa P2 [2] [%]
COC(C)(Cn1cncn1)c1ccc(Oc2ccc(Cl)cc2)cc1Cl (stereo not shown) [EP 0126430] | 63 | 60
CCC(Cn1cncn1)(OC)c1ccc(Oc2ccc(Cl)cc2)cc1Cl (stereo not shown) [U.S. Pat. No. 4,940,720] | 53 | 60
